Values after ≈ are worked out from the molar mass of the structure shown. Values belong to the compound of their own block, whether it stands above or below them. Active and inactive are the calls of the source. The rule behind the calls is not given here.
Tests used:
[1] = Solubility in fed state simulated intestinal fluids; assay type: physicochemical
[2] = Solubility in fasted state simulated intestinal fluids; assay type: physicochemical
[3] = test system: Mus musculus; assay: Induction of locomotor activity in human D1 receptor knock-in habituated transgenic mouse assessed as increase in total ambulations at 10 mg/kg, sc measured from 60 to 90 mins after daily dosing on day 1 by photocell beam monitoring based method relative to control; assay type: functional, organism-based
[4] = test system: Mus musculus; assay: Induction of locomotor activity in human D1 receptor knock-in habituated transgenic mouse assessed as increase in total ambulations at 10 mg/kg, sc measured from 60 to 90 mins after daily dosing on day 2 to 4 by photocell beam monitoring based method relative to control; assay type: functional, organism-based
[5] = Unbound intrinsic clearance in human liver microsomes; assay type: ADME, Microsome
[6] = Unbound intrinsic clearance in mouse liver microsomes; assay type: ADME, Microsome
[7] = molecular target: D(1A) dopamine receptor (Homo sapiens, UniProt P21728); assay: Positive allosteric modulator activity at human D1 receptor stably expressed in HEK293 cells assessed as potentiation of EC20 dopamine-induced cAMP accumulation incubated for 60 mins by HTRF assay; assay type: functional, cell-based
[8] = Solubility of the compound in pH 6.0 buffer by high throughput solubility assay; assay type: physicochemical

Chain of D(1A) dopamine receptor (P21728 whole entry): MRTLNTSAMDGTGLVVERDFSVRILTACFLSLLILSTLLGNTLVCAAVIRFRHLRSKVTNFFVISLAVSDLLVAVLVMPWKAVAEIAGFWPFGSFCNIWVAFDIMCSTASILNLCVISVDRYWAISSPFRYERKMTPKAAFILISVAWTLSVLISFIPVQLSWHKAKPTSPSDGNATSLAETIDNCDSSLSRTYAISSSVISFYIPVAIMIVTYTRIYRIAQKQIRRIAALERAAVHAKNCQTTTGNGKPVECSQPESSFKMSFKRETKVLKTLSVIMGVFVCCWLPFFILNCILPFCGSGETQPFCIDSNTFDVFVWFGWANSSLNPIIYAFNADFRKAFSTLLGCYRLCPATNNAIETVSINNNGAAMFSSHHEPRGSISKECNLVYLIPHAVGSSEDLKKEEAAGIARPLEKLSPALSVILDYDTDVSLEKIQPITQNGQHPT

solubility ([1]; fed state simulated intestinal fluid, read-out: solubility): 697 µg/mL
solubility ([2]; fasted state simulated intestinal fluid, read-out: solubility): 206 µg/mL
SMILES: C[C@H]1c2cccc(CCC(C)(C)O)c2C[C@H](CO)N1C(=O)Cc1c(Cl)cccc1Cl.O=C(O)c1ccc(O)cc1 [MEVIDALEN HYDROXYBENZOATE]

solubility ([1]; simulated gi fluid): 2 µg/mL (≈ 4.44 µM)
solubility ([2]; simulated gi fluid): 2 µg/mL (≈ 4.44 µM)
SMILES: C[C@H]1c2cccc(CCC(C)(C)O)c2C[C@H](CO)N1C(=O)Cc1c(Cl)cccc1Cl (stereo in doubt; form 2) [MEVIDALEN]

SMILES: NC[C@@H]1O[C@H](C23CC4CC(CC(C4)C2)C3)Cc2c1ccc(O)c2O
Activity [3]: Active
Activity [4]: inactive

CL free [5]: 31 mL/min/kg
CL free [6]: 779 mL/min/kg
EC50 [7]: 76 nM
solubility [8]: 156 µg/mL (≈ 357 µM)
SMILES: C[C@H]1c2cccc(CC(C)(C)O)c2C[C@H](CO)N1C(=O)Cc1c(Cl)cccc1Cl
